The test system of data set [1] is ZR-75-1 cells. Nature of the data set: Cell proliferation assay (3H-thymidine incorporation, 6 days). Type of data set: cell-based, human. To be noted: for cell proliferation (Example 1): six day period. The method, then: The ZR-75-1 cell line (passage 89) was obtained from the American Type Culture Collection (Rockville, Maryland). The cells were cultured in RPMI-1640 medium containing 10% heat-inactivated fetal calf serum, 200 µM L-glutamine, […], 1.5 U/ml penicillin, and 1.5 µg/ml streptomycin in 5% CO2 at 37°C. The cells were passaged twice weekly.
(§1) Cells were first seeded at initial density of 1x10^5 cells per ml in quadruplicates in 24 multi-well flat bottom plates (Costar). Cells were then allowed to adhere and grow in phenol red-free […] media supplemented with 10 % heat-inactivated fetal calf serum (FCS), 200 µM L-glutamine, 10 mM HEPES, 2.5 U/ml penicillin and 2.5 µg/ml streptomycin in 5% CO2 at 37°C. After 48 hours, four wells were sacrificed and counted to determine plating efficiency. In the remaining wells, medium was removed by aspiration and cells in each well were exposed to the media containing the specified steroid. The controls containing only medium or medium with vehicle were also prepared. In all samples, medium was changed every 48 hours. At the pre-established time-point. Cells were removed by trypsinization and washed. Cell number and viability were determined by trypan blue exclusion using a hemocytometer. Parallel cultures were also run to determine cell proliferation.
(§2) For cell proliferation assays, cell suspensions were prepared by trypsinization of cells from cultures prepared in accord with methods described above. Cell viability was determined by trypan blue exclusion. The cells were then seeded in flat-bottom 96-well microtiter plates at a density of 2X10^3 cells/well and were allowed to rest for 48 hours in order to adhere. Non-adherent dead cells were removed by aspiration. Cells were then grown in media without phenol red. Some of the media contained supplements as indicated above. The active agents or vehicle control were added to the media. The cells were then grown for six days. Media was changed on the samples every 48 hours. On day 6, cells were pulsed with 1 µCi[…] for the last 6 hours of incubation before harvesting onto glass filter using a HPD cell harvester (Cambridge Technology, Watertown, Massachusetts) and counted on a KLB scintillation counter.
(§3) Initial tests were carried out to determine the optimal (maximal) dose of αAED required to inhibit growth of the ZR-75-1 cells in in vitro as determined by tritiated tymidine incorporation. […] To ensure that inhibition was not due to cytotoxicity, cell count and viability were assessed by trypan blue exclusion.
ZR-75-1 cells (2X10^3) were treated as described above over a six day period with differing concentrations of αAED or with vehicle-only cultures. The medium was changed every 48 hours. Cells were pulsed with ^3H-thymidine for the last six hours of incubation.

The subject of data set [2] is ZR-75-1 cells. Nature of the data set: Cell count and viability by trypan blue exclusion. Type of data set: cell-based, human. The method, then:
as §1, §3

In the next data set the test system is P388D1 cells. The data set can be described thus: Growth of lymphoid neoplasm cells in the presence of RU486. The class given is cell-based. To be noted: RU486 at 0.5 µM and 1.0 µM. The method, then:
as §2
Effect of αAED on growth of lymphoid neoplasm (P388D1 cells obtained from the American Type Culture Collection) in the presence of RU486 at concentration of 0.5 µM and 1.0 µM was studied in accord with the methods described above.

Another data set relates to RAW 264.7. The data set can be described thus: Proliferation of macrophage myeloma cells. The class given is cell-based, murine. The method, then:
as §2
Effects of αAED at doses of 50 ηM and 100 ηM doses on murine macrophage myeloma cells (RAW 264.7, obtained from the American Type Culture Collection) was studied.

On to `C[C@]12CC[C@H]3[C@@H](CC=C4C[C@@H](O)CC[C@@]43C)[C@@H]1CC[C@@H]2O` [βAED, 5-androstene 3β,17β diol, reference compound], for which the “antiproliferative effect on the growth of the ZR-75-1 cells” value with ZR-75-1 cells [1] (alone at 100 ηM) is on record as “did not have any antiproliferative effect”.

Take `C[C@]12CC[C@H]3[C@@H](CC=C4C[C@@H](O)CC[C@@]43C)[C@@H]1CC[C@H]2O` [αAED, 5-androstene 3β,17α diol]: the “cytotoxicity (cell count and viability)” value in the data set on ZR-75-1 cells [2] is “not toxic”. Moreover, the “proliferation in the presence of estradiol (Example 3)” value with ZR-75-1 cells [1] (1 ηM estradiol, higher doses of αAED, 6 day period) is reported as “suppressed proliferation”. Also, the “cell proliferation (Example 1)” value is “increasing proliferation” in the data set with ZR-75-1 cells [1] (6.25 ηM), “decreasing cell proliferation” with ZR-75-1 cells [1] (25 ηM) and “marked decrease” with ZR-75-1 cells [1] (50 ηM). Moreover, in the data set on ZR-75-1 cells [1] (ZR-75-1 cells, 6 days), the “maximal dose of anti-proliferative effect” value is listed as 100 ηM. Besides, the “growth of ZR-75-1 cells” value with ZR-75-1 cells [1] (concentration of 25 nM or greater) is recorded as “significantly inhibited the growth”. The “proliferation of ZR-75-1 cells compared with the vehicle control” value in the data set with ZR-75-1 cells [1] (concentrations between 6.25 and 12.5 ηM (P<0.01)) is “stimulated proliferation”. Moreover, in the data set with ZR-75-1 cells [1] (doses ranging from 3.13 ηM to 50 ηM, after 6 days), the “effect on the growth of ZR-75-1 cells compared to vehicle control” value is recorded as “biphasic effect”. Also, the “proliferation of cells in the presence of RU486 (Example 5)” value in the data set with ZR-75-1 cells [1] (αAED with 0.5 µM RU486) was “synergistic action to decrease proliferation of cells”. The “proliferation of cells in the presence of βAED (Example 2)” value in the data set with ZR-75-1 cells [1] (βAED constant at 2.5 ηM, all concentrations of αAED) is listed as “decreased proliferation”. The “antiproliferative effects in the presence of Flutamide (Example 4)” value with ZR-75-1 cells [1] (≥6.25 ηM αAED, with Flutamide, 6 day period) is given as “greatly enhanced”. Also, the “growth of lymphoid neoplasm in the presence of RU486 (Example 8)” value in the data set on P388D1 cells was “increased effectiveness over use of one agent”. Also, the “proliferation of murine macrophage myeloma cells (Example 9)” value in the data set on RAW 264.7 (50 ηM) and in the data set with RAW 264.7 (100 ηM) was “significant inhibition of proliferation” throughout.

These data come from EP0925064B1, “5-ANDROSTENE 3 beta,17alpha DIOL AS AN INHIBITOR OF TUMOR GROWTH” (LORIA, Roger M., priority 1996, dated 1997).
